Data from PubChem BioAssay AID2060889 (Molecular Pharmacology Branch, DTP, NCI, 2025).

Tested on: LG0567-F671-PDC complex spheroids viability
Assay: Anticancer human tumor LG0567-F671-PDC patient-derived lung adenocarcinoma cell line growth inhibition [RAS]
Conditions: for IC50: curve of first compound; for viability, T/C: stronger effect = lower value
Source text: RAS pathway inhibitors in Combinations in Complex Spheroids
A high-throughput screen of multi-cell type tumor spheroids was designed to identify active combinations of RAS pathway inhibitors and targeted small molecules. Complex spheroids include a stromal component modeled by human endothelial cells (HUVEC) and fibroblasts modeled by human mesenchymal stem cells (MSCs). The concentration ranges selected for each drug and investigational agent were based upon clinically achievable concentrations if the clinical Cmax of the agent was known.
Compounds. The drugs and investigational agents: abemaciclib (NSC768073), cobimetinib (NSC768068), divarasib (GDC6063, NSC841802), docetaxel (NSC628503), GDC-1971 (RLY-1971, NSC841576), gemcitabine (NSC613327), inavolisib (NSC800729), ipatasertib (NSC767898), KB-0742 (NSC834161), MRTX-1133 (NSC836407), osimertinib (NSC779217), RMC-4630 (NSC839698), RMC-6236 (NSC851965), RMC-6291 (NSC852671), Ro-3306 (NSC812927), sapanisertib (NSC764658), SN-38 (NSC673596), staurosporine (NSC755774), SY5609 (NSC837396), and tovorafenib (DAY101, NSC766906), were obtained from the National Cancer Institute (NCI) Developmental Therapeutics Program Chemical Repository. The FDA-approved anticancer drug set is available from the NCI Developmental Therapeutics Program. […] The stock solutions were prepared in dimethyl sulfoxide (DMSO, Sigma-Aldrich, St. Louis, MO, cat. D2650) at 800-fold the tested concentration and stored at -70 degrees C prior to their use. All drugs and investigational agents were tested over a range starting from a high concentration at or near the clinical Cmax and decreasing in half-log increments. If the clinical Cmax for an agent had not been determined, the highest concentration tested was 10 microM.
Cell Culture. All cells were maintained in an incubator at 37 degrees C and 5% CO2 with 95% humidity. The PDC lines were cultured according to standard operating procedures established by the NCI PDMR. All PDCs were thawed and cultured in Matrigel-coated flasks prepared with a working solution of 1X Ham's F-12 nutrient mix, without supplementation (Invitrogen, Waltham, MA, cat. 11765054), 100 U/mL penicillin-streptomycin (Invitrogen, cat. 15140122), and 2.5% Matrigel (Corning Inc., Corning, NY, cat. 354248) for the first three passages. The 362531-283-R-J2-PDC and 782815-120-R-J1-PDC lines were cultured in 6C/Colon 1B media, which includes advanced DMEM/F-12 (Thermo Fisher Scientific, cat. 12634028), 10 mM HEPES (Thermo Fisher Scientific, cat. 15630080), 1X GlutaMAX supplement (Thermo Fisher Scientific, cat. 35050061), 0.1 mg/mL primocin (InvivoGen, San Diego, CA, cat. ant-pm-2), 10% defined fetal bovine serum, heat inactivated (HyClone Laboratories Inc., Logan, UT, cat. SH30070.03HI), 50% L-WRN conditioned media (ATCC, cat. CRL-3276), 1.25 mM N-Acetyl-L-cysteine (Sigma-Aldrich, cat. A9165), 10 mM nicotinamide (Sigma-Aldrich, cat. N0636), 1X B-27 supplement (Thermo Fisher Scientific, cat. 17504044), 1X N-2 supplement (Thermo Fisher Scientific, cat. 17502048), 50 ng/mL human EGF (Thermo Fisher Scientific, cat. PHG0311), and 10 microM Y-27632 dihydrochloride (Tocris Bioscience, cat. 1254). The K12877-001-R-J1-PDC line was cultured in 6I media, which includes all 6C/Colon 1B media plus 10 ng/mL human FGF-10 (PeproTech, cat. 100-26), 1 ng/mL human FGF-2 (PeproTech, cat. 100-18B), 1 µM prostaglandin E2 (Tocris Bioscience, cat. 2296), […] hydrocortisone (Sigma-Aldrich, cat. H4001), and […] bovine insulin (Sigma-Aldrich, cat. I6634). The K86415-001-R-J1-PDC line was cultured in 6D media, which includes all 6C/Colon 1B media components minus the L-WRN conditioned media. The 485176-168-R4-J1-PDC was cultured in PANC media, which includes all 6C/Colon 1B media plus 100 ng/mL human FGF-10 (PeproTech, cat. 100-26), 500 nM SB-431542 (Selleckchem, cat. S1067), and 10 nM gastrin (Tocris Bioscience, cat. 3006). […]
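Note: spheroids exposed to compound for seven days before readout.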
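Throughout, for IC50: luminescence signal used as a proxy for viable cells.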

**Q.** What does the source list for `CC(Nc1ccc2c(c1)OCCn1cc(N3C(=O)OCC3C(F)F)nc1-2)C(N)=O` (centres undefined) + CCn1c(-c2cccnc2C(C)OC)c2c3cc(ccc31)N1CCOC(CC(NC(=O)C(C(C)C)N(C)C(=O)C3(F)CCN(C(=O)C#CC(C)(C)N(C)C)CC3)C(=O)N3CCCC(N3)C(=O)OCC(C)(C)C2)C1?
**A.** IC50 (second compound 0.000949 µM): < 0.0316 µM; IC50 (second compound 0.003 µM): < 0.0316 µM; IC50 (second compound 0.00949 µM): < 0.0316 µM; IC50 (second compound 0.03 µM): < 0.0316 µM; IC50 (second compound 0.0949 µM): < 0.0316 µM; IC50 (second compound 0.3 µM): < 0.0316 µM; viability, T/C (second compound 0.000949 µM, first compound 0.0316 µM): 10.7%; viability, T/C (second compound 0.000949 µM, first compound 0.1 µM): 8.72%; viability, T/C (second compound 0.000949 µM, first compound 0.316 µM): 8.3%; viability, T/C (second compound 0.000949 µM, first compound 1 µM): 7.21%; viability, T/C (second compound 0.000949 µM, first compound 3.16 µM): 5.43%; viability, T/C (second compound 0.000949 µM, first compound 10 µM): 4.31%; viability, T/C (second compound 0.003 µM, first compound 0.0316 µM): 9.17%; viability, T/C (second compound 0.003 µM, first compound 0.1 µM): 8.19%; viability, T/C (second compound 0.003 µM, first compound 0.316 µM): 7.67%; viability, T/C (second compound 0.003 µM, first compound 1 µM): 6.15%; viability, T/C (second compound 0.003 µM, first compound 3.16 µM): 6.22%; viability, T/C (second compound 0.003 µM, first compound 10 µM): 4.37%; viability, T/C (second compound 0.00949 µM, first compound 0.0316 µM): 9.41%; viability, T/C (second compound 0.00949 µM, first compound 0.1 µM): 8.93%; viability, T/C (second compound 0.00949 µM, first compound 0.316 µM): 9.05%; viability, T/C (second compound 0.00949 µM, first compound 1 µM): 6.09%; viability, T/C (second compound 0.00949 µM, first compound 3.16 µM): 5.36%; viability, T/C (second compound 0.00949 µM, first compound 10 µM): 4.24%; viability, T/C (second compound 0.03 µM, first compound 0.0316 µM): 8.43%; viability, T/C (second compound 0.03 µM, first compound 0.1 µM): 7.85%; viability, T/C (second compound 0.03 µM, first compound 0.316 µM): 6.83%; viability, T/C (second compound 0.03 µM, first compound 1 µM): 5.59%; viability, T/C (second compound 0.03 µM, first compound 3.16 µM): 4.63%; viability, T/C (second compound 0.03 µM, first compound 10 µM): 3.89%; viability, T/C (second compound 0.0949 µM, first compound 0.0316 µM): 7.47%; viability, T/C (second compound 0.0949 µM, first compound 0.1 µM): 6.11%; viability, T/C (second compound 0.0949 µM, first compound 0.316 µM): 5.42%; viability, T/C (second compound 0.0949 µM, first compound 1 µM): 4.93%; viability, T/C (second compound 0.0949 µM, first compound 3.16 µM): 3.8%; viability, T/C (second compound 0.0949 µM, first compound 10 µM): 2.62%; viability, T/C (second compound 0.3 µM, first compound 0.0316 µM): 7.06%; viability, T/C (second compound 0.3 µM, first compound 0.1 µM): 4.74%; viability, T/C (second compound 0.3 µM, first compound 0.316 µM): 5.86%; viability, T/C (second compound 0.3 µM, first compound 1 µM): 3.71%; viability, T/C (second compound 0.3 µM, first compound 3.16 µM): 2.8%; viability, T/C (second compound 0.3 µM, first compound 10 µM): 1.69%

**Q.** `CC(C)NCC(C(=O)N1CCN(c2ncnc3c2C(C)CC3O)CC1)c1ccc(Cl)cc1` (centres undefined) + C=CC(=O)N1CCN(c2nc(OCC3CCCN3C)nc3c(F)c(-c4nc(N)cc(C)c4C(F)(F)F)c(Cl)cc23)C(C)C1 was tested. Which IC50 (second compound 0.00316 µM) did it give?
**A.** < 0.0316 µM

**Q.** And the IC50 (second compound 0.01 µM)?
**A.** < 0.0316 µM

**Q.** And the IC50 (second compound 0.0316 µM)?
**A.** < 0.0316 µM

**Q.** What about the IC50 (second compound 0.1 µM) of the same compound?
**A.** < 0.0316 µM

**Q.** And the IC50 (second compound 0.316 µM)?
**A.** < 0.0316 µM

**Q.** And the IC50 (second compound 1 µM)?
**A.** < 0.0316 µM

**Q.** And the viability, T/C (second compound 0.00316 µM, first compound 0.0316 µM)?
**A.** 16.6%

**Q.** What about the viability, T/C (second compound 0.00316 µM, first compound 0.1 µM) of the same compound?
**A.** 18.9%

**Q.** And the viability, T/C (second compound 0.00316 µM, first compound 0.316 µM)?
**A.** 14.9%

**Q.** What about the viability, T/C (second compound 0.00316 µM, first compound 1 µM) of the same compound?
**A.** 10.8%

**Q.** What about the viability, T/C (second compound 0.00316 µM, first compound 3.16 µM) of the same compound?
**A.** 10.3%

**Q.** What about the viability, T/C (second compound 0.00316 µM, first compound 10 µM) of the same compound?
**A.** 9%

**Q.** What about the viability, T/C (second compound 0.01 µM, first compound 0.0316 µM) of the same compound?
**A.** 17%

**Q.** What about the viability, T/C (second compound 0.01 µM, first compound 0.1 µM) of the same compound?
**A.** 11.4%

**Q.** And the viability, T/C (second compound 0.01 µM, first compound 0.316 µM)?
**A.** 10.8%

**Q.** And the viability, T/C (second compound 0.01 µM, first compound 1 µM)?
**A.** 9.98%

**Q.** And the viability, T/C (second compound 0.01 µM, first compound 3.16 µM)?
**A.** 8.68%

**Q.** And the viability, T/C (second compound 0.01 µM, first compound 10 µM)?
**A.** 8.55%

**Q.** And the viability, T/C (second compound 0.0316 µM, first compound 0.0316 µM)?
**A.** 13.8%

**Q.** What about the viability, T/C (second compound 0.0316 µM, first compound 0.1 µM) of the same compound?
**A.** 13.7%

**Q.** And the viability, T/C (second compound 0.0316 µM, first compound 0.316 µM)?
**A.** 10.3%

**Q.** What about the viability, T/C (second compound 0.0316 µM, first compound 1 µM) of the same compound?
**A.** 8.15%

**Q.** What about the viability, T/C (second compound 0.0316 µM, first compound 3.16 µM) of the same compound?
**A.** 7.81%

**Q.** What about the viability, T/C (second compound 0.0316 µM, first compound 10 µM) of the same compound?
**A.** 7.64%

**Q.** What about the viability, T/C (second compound 0.1 µM, first compound 0.0316 µM) of the same compound?
**A.** 12.6%

**Q.** And the viability, T/C (second compound 0.1 µM, first compound 0.1 µM)?
**A.** 13.6%

**Q.** What about the viability, T/C (second compound 0.1 µM, first compound 0.316 µM) of the same compound?
**A.** 11.4%

**Q.** And the viability, T/C (second compound 0.1 µM, first compound 1 µM)?
**A.** 8.66%

**Q.** What about the viability, T/C (second compound 0.1 µM, first compound 3.16 µM) of the same compound?
**A.** 8.46%

**Q.** And the viability, T/C (second compound 0.1 µM, first compound 10 µM)?
**A.** 7.32%

**Q.** What about the viability, T/C (second compound 0.316 µM, first compound 0.0316 µM) of the same compound?
**A.** 14.9%

**Q.** What about the viability, T/C (second compound 0.316 µM, first compound 0.1 µM) of the same compound?
**A.** 11.9%

**Q.** What about the viability, T/C (second compound 0.316 µM, first compound 0.316 µM) of the same compound?
**A.** 11.5%

**Q.** And the viability, T/C (second compound 0.316 µM, first compound 1 µM)?
**A.** 9.81%

**Q.** And the viability, T/C (second compound 0.316 µM, first compound 3.16 µM)?
**A.** 9.16%

**Q.** What about the viability, T/C (second compound 0.316 µM, first compound 10 µM) of the same compound?
**A.** 7.21%

**Q.** And the viability, T/C (second compound 1 µM, first compound 0.0316 µM)?
**A.** 15.6%

**Q.** And the viability, T/C (second compound 1 µM, first compound 0.1 µM)?
**A.** 11.9%

**Q.** What about the viability, T/C (second compound 1 µM, first compound 0.316 µM) of the same compound?
**A.** 12.7%

**Q.** What about the viability, T/C (second compound 1 µM, first compound 1 µM) of the same compound?
**A.** 9.59%

**Q.** And the viability, T/C (second compound 1 µM, first compound 3.16 µM)?
**A.** 10%

**Q.** And the viability, T/C (second compound 1 µM, first compound 10 µM)?
**A.** 9.16%
